Target: T1, human GnRH receptor (Homo sapiens, UniProt P30968)
T1 construct: expressed in transfected cells; membrane preparations
T1 sequence (P30968 1-328): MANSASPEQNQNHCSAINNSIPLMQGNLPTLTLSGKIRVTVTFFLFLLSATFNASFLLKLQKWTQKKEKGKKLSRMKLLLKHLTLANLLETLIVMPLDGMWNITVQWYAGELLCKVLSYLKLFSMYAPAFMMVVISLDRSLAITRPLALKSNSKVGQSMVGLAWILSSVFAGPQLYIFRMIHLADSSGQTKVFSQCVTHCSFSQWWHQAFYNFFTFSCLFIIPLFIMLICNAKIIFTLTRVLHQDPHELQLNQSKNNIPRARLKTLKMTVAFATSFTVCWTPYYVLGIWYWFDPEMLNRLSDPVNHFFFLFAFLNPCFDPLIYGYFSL
Experiment: peptide competitive human receptor binding assays (radioligand displacement)
Conditions: tested in one or more of the peptide competitive human receptor binding assays
Description: HEK293 cells stably transfected with the human GnRH receptor are grown for two days after achieving confluence then are harvested by striking tissue culture flasks against a firm surface. Cells are collected by centrifugation at 1000 g for […]. Cell pellets are resuspended in 5% sucrose and homogenized using a polytron homogenizer for two 15 second homogenization steps. Cell homogenates are then centrifuged for 5 minutes at 3000 g to remove nuclei and the supernatant subsequently centrifuged for 30 minutes at 44,000 g to collect the membrane fraction. The membrane pellet is resuspended in GnRH binding buffer (10 mM HEPES, pH 7.5, 150 mM NaCl and 0.1% BSA) and aliquots immediately snap-frozen in liquid nitrogen and stored at −80° C. Protein content of the membrane suspension is determined using the Bio-Rad protein assay kit (Bio-Rad).
RBL cells stably transfected with the human GnRH receptor are grown to 80% confluency prior to harvesting. The cells are incubated at 37° C. for 10 min in 0.5 mM EDTA/PBS (Ca^++, Mg^++ free), and are dislodged from the plate by gentle rapping of the flasks. Cells are collected and pelleted by centrifugation at 1000 g for 5 minutes. Cell pellets are resuspended in buffer (DPBS supplemented with 10 mM MgCl2, 2 mM EGTA, pH=7.4), and cell lysis is performed using a pressure cell and applying N2 at a pressure of 900 psi for 30 min at 4° C. Unbroken cells and larger debris were removed by centrifugation at 1200 g for 10 min at 4° C. The cell membrane supernatant is then centrifuged at 45,000 g and the resulting membrane pellet is resuspended in assay buffer and homogenized on ice using a tissue homogenizer. Protein concentrations are determined using the Coomassie Plus Protein Reagent kit. Membranes are aliquoted and stored at −80° C. until ready for use.
Radioligand binding displacement assays using the peptide radioligands are performed in buffer containing 10 mM HEPES, 150 mM NaCl and 0.1% BSA, pH=7.5. Radioligand binding assays employing the use of [^3H]-1-(2,6-difluorobenzyl)-3-[(2R)-amino-2-phenethyl]-5-(2-fluoro-3-methoxyphenyl)-6-methyluracil (here the 3-methoxy group is tritiated) are run in buffer containing 50 mM Tris, 150 mM NaCl, 5 mM MgCl2, 0.01% saponin and 0.5 mM EDTA, pH=7.5. Radioligand displacement assays are performed by incubating radioligand ([^125I-Tyr^5, DLeu^6, NMeLeu^7, Pro^9-NEt]GnRH (0.1 nM), [His^5, ^125I-DTyr^6]GnRH (0.2 nM) (31) or [^3H]-1-(2,6-difluorobenzyl)-3-[(2R)-amino-2-phenethyl]-5-(2-fluoro-3-methoxyphenyl)-6-methyluracil (1 nM)), unlabeled competitors at concentrations ranging from 0.3 pM to 10 μM, and membranes for 2 hrs at rt. 10 to 20 μg protein/well is used from membrane preparations for human, monkey and rabbit GnRH receptor. 5 μg/well and 60 μg/well of membranes are used for rat and dog GnRH receptors, respectively. Binding assays are performed in either Millipore 96-well GF/C filtration plates (for ([^125I-Tyr^5, DLeu^6, NMeLeu^7, Pro^9-NEt]GnRH assays), or in 96 well low binding plates, which are subsequently filtered onto GF/C Unifilters. Filters are pretreated with 0.5% PEI for 30 min prior to use. Reactions are terminated by rapid vacuum filtration, and the filters are washed twice with 250 μL ice cold PBS pH=7.4 (0.01% Tween-20 is included in wash media for [His^5, ^125I-DTyr^6]GnRH and [^3H]-1-(2,6-difluorobenzyl)-3-[(2R)-amino-2-phenethyl]-5-(2-fluoro-3-methoxyphenyl)-6-methyluracil radioligands). The filters are dried, and the Millipore filters are monitored for radioactivity using a Cobra II gamma counter (Perkin Elmer Life Sciences). For assays filtered onto the GF/C Unifilter plates, 50 μL scintillation fluid is added to each filter, and radioactivity is monitored using a TopCount NXT. For iodinated radioligands, total radioligand is monitored on a gamma counter, and for the tritiated radioligand, total radioligand is monitored using a Perkin Elmer 1600TR liquid scintillation counter. […]

**Q.** How did the Ki turn out when `Cc1cc(Cl)ncc1-c1cc(S(=O)(=O)N2CCCCc3ccccc32)ccc1Cl` [Example 4-1, 1-[4-chloro-3-(6-chloro-4-methyl-pyridin-3-yl)-benzenesulfonyl]-2,3,4,5-tetrahydro-1H-1-benzazepine] was run?
**A.** Its Ki is no more than 100 nM.

**Q.** With `Cc1cc(Cl)ncc1-c1cc(S(=O)(=O)N2CCCC(=O)c3ccccc32)ccc1Cl` [Example 4-2] as the molecule, how does the Ki read?
**A.** The Ki was no more than 100 nM.

**Q.** With `Cc1cc(Cl)ncc1-c1cc(S(=O)(=O)N2CCCc3ccccc32)ccc1Cl` [Example 4-3] as the molecule, how does the Ki read?
**A.** The Ki was no more than 100 nM.

**Q.** Which Ki does the source give for `Cc1cc(Cl)ncc1-c1cc(S(=O)(=O)N2CCOc3ccccc32)ccc1Cl` [Example 4-4] here?
**A.** The Ki was no more than 100 nM.

**Q.** How did the Ki turn out when `Cc1cc(Cl)ncc1-c1cc(S(=O)(=O)N2CCC(C)(C)c3ccccc32)ccc1Cl` [Example 4-5] was run?
**A.** Its Ki is no more than 100 nM.

**Q.** `Cc1cc(Cl)c(-c2cc(S(=O)(=O)N3CCCc4ccccc43)ccc2Cl)cn1` [Example 4-8] was tested. Which Ki did it give?
**A.** Its Ki is no more than 100 nM.

**Q.** For `Cc1cc(C(F)(F)F)ncc1-c1cc(S(=O)(=O)N2CCCCc3ccccc32)ccc1Cl` [Example 4-9], which Ki is on record?
**A.** The Ki was no more than 100 nM.

**Q.** For `Cc1cc(C(F)(F)F)ncc1-c1cc(S(=O)(=O)N2CCCc3ccccc32)ccc1Cl` [Example 4-10], which Ki is on record?
**A.** Its Ki is no more than 100 nM.

**Q.** For `Cc1cc(C(F)(F)F)ncc1-c1cc(S(=O)(=O)N2CCOc3ccccc32)ccc1Cl` [Example 4-11], which Ki is on record?
**A.** Its Ki is no more than 100 nM.

**Q.** `N#Cc1cc(C(F)(F)F)ncc1-c1cc(S(=O)(=O)N2CCCCc3ccccc32)ccc1Cl` [Example 4-13] was tested. Which Ki did it give?
**A.** Its Ki is no more than 100 nM.

**Q.** `Cc1cccc2c1N(S(=O)(=O)c1ccc(Cl)c(-c3cnc(C(F)(F)F)cc3C#N)c1)CCC2` [Example 4-14] was tested. Which Ki did it give?
**A.** Its Ki is no more than 100 nM.

**Q.** Which Ki does the source give for `N#Cc1cc(C(F)(F)F)ncc1-c1cc(S(=O)(=O)N2CCOc3ccccc32)ccc1Cl` [Example 4-15] here?
**A.** The Ki was no more than 100 nM.

**Q.** For `CC1(C)CCN(S(=O)(=O)c2ccc(Cl)c(-c3cnc(C(F)(F)F)cc3C#N)c2)c2ccccc21` [Example 4-16], which Ki is on record?
**A.** Its Ki is no more than 100 nM.

**Q.** `N#Cc1cc(C(F)(F)F)ncc1-c1cc(S(=O)(=O)N2CCOCc3ccccc32)ccc1Cl` [Example 4-17] was tested. Which Ki did it give?
**A.** Its Ki is no more than 100 nM.

**Q.** `N#Cc1cc2ccccc2nc1-c1cc(S(=O)(=O)N2CCCCc3ccccc32)ccc1Cl` [Example 4-18] was tested. Which Ki did it give?
**A.** Its Ki is no more than 100 nM.

**Q.** `CC1(C)CCN(S(=O)(=O)c2ccc(Cl)c(-c3nc4ccccc4cc3C#N)c2)c2ccccc21` [Example 4-19] was tested. Which Ki did it give?
**A.** Its Ki is no more than 100 nM.

**Q.** How did the Ki turn out when `Cc1cccc2c1N(S(=O)(=O)c1ccc(Cl)c(-c3cnc(C(F)(F)F)cc3C#N)c1)CCCO2` [Example 4-20] was run?
**A.** Its Ki is no more than 100 nM.

**Q.** `Cc1cc(Cl)ncc1-c1cc(S(=O)(=O)N2CCCOc3ccccc32)ccc1Cl` [Example 4-23] was tested. Which Ki did it give?
**A.** Its Ki is no more than 100 nM.

**Q.** How did the Ki turn out when `N#Cc1cc(C(F)(F)F)ncc1-c1cc(S(=O)(=O)N2CCCOc3ccccc32)ccc1Cl` [Example 4-24] was run?
**A.** Its Ki is no more than 100 nM.

**Q.** Which Ki does the source give for `O=S(=O)(c1ccc(Cl)c(-c2cnc(Cl)cc2Cl)c1)N1CCCCc2ccccc21` [Example 5-1, 1-[4-Chloro-3-(4,6-dichloro-pyridin-3-yl)-benzenesulfonyl]-2,3,4,5-tetrahydro-1H-1-benzazepine] here?
**A.** Its Ki is no more than 100 nM.

**Q.** Which Ki does the source give for `COc1ccccc1N(C)S(=O)(=O)c1ccc(Cl)c(-c2cnc(Cl)cc2Cl)c1` [Example 5-2] here?
**A.** The Ki was no more than 100 nM.

**Q.** For `O=S(=O)(c1ccc(Cl)c(-c2cnc(Cl)cc2Cl)c1)N1CCCc2ccccc21` [Example 5-3], which Ki is on record?
**A.** The Ki was no more than 100 nM.

**Q.** With `O=S(=O)(c1ccc(Cl)c(-c2cnc(Cl)cc2Cl)c1)N1CCOc2ccccc21` [Example 5-4] as the molecule, how does the Ki read?
**A.** Its Ki is no more than 100 nM.

**Q.** For `CC1(C)CCN(S(=O)(=O)c2ccc(Cl)c(-c3cnc(Cl)cc3Cl)c2)c2ccccc21` [Example 5-5], which Ki is on record?
**A.** Its Ki is no more than 100 nM.

**Q.** How did the Ki turn out when `CC1CCc2ccccc2N1S(=O)(=O)c1ccc(Cl)c(-c2cnc(Cl)cc2Cl)c1` (stereo not drawn) [Example 5-6] was run?
**A.** The Ki was no more than 100 nM.

**Q.** Which Ki does the source give for `CC(C)(C)OC(=O)CCCOc1cc(Cl)c(-c2cnc(C(F)(F)F)cc2C#N)cc1S(=O)(=O)N1CCCCc2ccccc21` [Example 6-1, 4-[5-chloro-4-(4-cyano-6-trifluoromethyl-pyridin-3-yl)-2-(2,3,4,5-tetrahydro-benzo[b]azepine-1-sulfonyl)-phenoxy]-butyric acid tert-butyl ester] here?
**A.** Its Ki is no more than 100 nM.

**Q.** How did the Ki turn out when `CC(C)(C)OC(=O)COc1cc(Cl)c(-c2cnc(C(F)(F)F)cc2C#N)cc1S(=O)(=O)N1CCCCc2ccccc21` [Example 6-5] was run?
**A.** Its Ki is no more than 100 nM.

**Q.** For `N#Cc1cc(C(F)(F)F)ncc1-c1cc(S(=O)(=O)N2CCCCc3ccccc32)c(OCCCC(=O)O)cc1Cl` [Example 7-1, 4-[5-chloro-4-(4-cyano-6-trifluoromethyl-pyridin-3-yl)-2-(2,3,4,5-tetrahydro-benzo[b]azepine-1-sulfonyl)-phenoxy]-butyric acid], which Ki is on record?
**A.** The Ki was no more than 100 nM.

**Q.** Which Ki does the source give for `Cc1cc(C(F)(F)F)ncc1-c1cc(S(=O)(=O)N2CCCCc3ccccc32)c(OCCCC(=O)O)cc1Cl` [Example 7-2] here?
**A.** Its Ki is no more than 100 nM.

**Q.** `Cc1cc(C#N)ncc1-c1cc(S(=O)(=O)N2CCCCc3ccccc32)c(OCCCC(=O)O)cc1Cl` [Example 7-3] was tested. Which Ki did it give?
**A.** The Ki was no more than 100 nM.

**Q.** With `N#Cc1cc2ccccc2nc1-c1cc(S(=O)(=O)N2CCCCc3ccccc32)c(OCCCC(=O)O)cc1Cl` [Example 7-4] as the molecule, how does the Ki read?
**A.** Its Ki is no more than 100 nM.

**Q.** How did the Ki turn out when `N#Cc1cc(C(F)(F)F)ncc1-c1cc(S(=O)(=O)N2CCCCc3ccccc32)c(OCC(=O)O)cc1Cl` [Example 7-5] was run?
**A.** Its Ki is no more than 100 nM.

**Q.** With `N#Cc1cc(C(F)(F)F)ncc1-c1cc(S(=O)(=O)N2CCCCc3ccccc32)c(O)cc1Cl` [Example 8-2] as the molecule, how does the Ki read?
**A.** Its Ki is no more than 100 nM.

**Q.** With `N#Cc1cc2ccccc2nc1-c1cc(S(=O)(=O)N2CCCCc3ccccc32)c(O)cc1Cl` [Example 8-3] as the molecule, how does the Ki read?
**A.** The Ki was no more than 100 nM.

**Q.** Which Ki does the source give for `Cc1cc(C#N)ncc1-c1cc(S(=O)(=O)N2CCCCc3ccccc32)c(OCCCO)cc1Cl` [Example 9-1, 5-[2-chloro-4-(3-hydroxy-propoxy)-5-(2,3,4,5-tetrahydro-benzo[b]azepine-1-sulfonyl)-phenyl]-4-methyl-pyridine-2-carbonitrile] here?
**A.** The Ki was no more than 100 nM.

**Q.** How did the Ki turn out when `N#Cc1cc(C(F)(F)F)ncc1-c1cc(S(=O)(=O)N2CCCCc3ccccc32)c(OCCCO)cc1Cl` [Example 9-2, 5-[2-Chloro-4-(3-hydroxy-propoxy)-5-(2,3,4,5-tetrahydro-benzo[b]azepine-1-sulfonyl)-phenyl]-2-trifluoromethyl-isonicotinonitrile] was run?
**A.** Its Ki is no more than 100 nM.

**Q.** How did the Ki turn out when `Cc1cc(C#N)ncc1-c1cc(S(=O)(=O)N2CCCCc3ccccc32)c(OCCC(=O)O)cc1Cl` [Example 10-1, 3-[5-chloro-4-(6-cyano-4-methyl-pyridin-3-yl)-2-(2,3,4,5-tetrahydro-benzo[b]azepine-1-sulfonyl)-phenoxy]-propionic acid] was run?
**A.** Its Ki is no more than 100 nM.

**Q.** `N#Cc1cc(C(F)(F)F)ncc1-c1cc(S(=O)(=O)N2CCCCc3ccccc32)c(OCCC(=O)O)cc1Cl` [Example 10-2, 3-[5-chloro-4-(4-cyano-6-trifluoromethyl-pyridin-3-yl)-2-(2,3,4,5-tetrahydro-benzo[b]azepine-1-sulfonyl)-phenoxy]-propionic acid] was tested. Which Ki did it give?
**A.** The Ki was no more than 100 nM.

**Q.** For `CC1(C)CCN(S(=O)(=O)c2cc(-c3cnc(C(F)(F)F)cc3C#N)c(Cl)cc2OCCCCO)c2ccccc21` [Example 11-1, 5-[2-chloro-5-(4,4-dimethyl-3,4-dihydro-2H-quinoline-1-sulfonyl)-4-(4-hydroxy-butoxy)-phenyl]-2-trifluoromethyl-isonicotinonitrile], which Ki is on record?
**A.** Its Ki is no more than 100 nM.
